In ChEMBL document CHEMBL3822389, “New insights into 3-(aminomethyl)naphthoquinones: Evaluation of cytotoxicity, electrochemical behavior and search for structure-activity correlation” (Bioorg Med Chem Lett, 2016):

Assays:
[1] = Cytotoxicity against human HL60 cells after 72 hrs by MTT assay; assay type: functional, cell-based, HL-60
[2] = Cytotoxicity against human SF295 cells after 72 hrs by MTT assay; assay type: functional, cell-based, SF-295
[3] = test system: MDA-MB-435; assay: Cytotoxicity against human MDA-MB-435 cells after 72 hrs by MTT assay; assay type: functional, cell-based
[4] = Cytotoxicity against human HCT8 cells after 72 hrs by MTT assay; assay type: functional, cell-based, HCT-8

SMILES	IC50 ([1]; Homo sapiens, HL-60, 72 h)	IC50 ([2]; Homo sapiens, SF-295, 72 h)	IC50 ([3]; Homo sapiens, MDA-MB-435, 72 h)	IC50 ([4]; Homo sapiens, HCT-8, 72 h)	IC50 ([3]; mda-mb-435)	IC50 ([1]; hl-60)	IC50 ([2]; sf-295)	IC50 ([4]; hct-8)
CCCCNC(C1=C(O)C(=O)c2ccccc2C1=O)c1ccc(Cl)cc1Cl (centres undefined) [listing 1 of 2 here]	> 40 µM	> 40 µM						
O=C1C(O)=C(C(NCc2ccccc2)c2ccc([N+](=O)[O-])cc2)C(=O)c2ccccc21 (centres undefined) [listing 1 of 2 here]	> 40 µM	> 40 µM						
CCCCCCCCCCNC(C1=C(O)C(=O)c2ccccc2C1=O)c1cc(Br)ccc1O (centres undefined)	> 40 µM	> 40 µM	> 40 µM	> 40 µM				
CC(C)(C)OC(=O)NCCNC(C1=C(O)C(=O)c2ccccc2C1=O)c1ccccc1 (centres undefined)	> 40 µM	> 40 µM	> 40 µM	> 40 µM				
O=C1C(O)=C(C(NCc2ccccn2)c2ccccc2)C(=O)c2ccccc21 (centres undefined) [listing 1 of 2 here]					3.6 µM	5.4 µM	13.5 µM	6.3 µM
CC(C)(C)OC(=O)NCCCNC(C1=C(O)C(=O)c2ccccc2C1=O)c1ccc([N+](=O)[O-])cc1 (centres undefined)	> 40 µM	> 40 µM	> 40 µM	> 40 µM				
O=C1C(O)=C(C(NCc2ccccc2)c2ccccn2)C(=O)c2ccccc21 (centres undefined)	4.8 µM	1.3 µM	> 40 µM	2.2 µM				
CCCCNC(C1=C(O)C(=O)c2ccccc2C1=O)c1cc(Br)ccc1O (centres undefined)			> 40 µM			> 40 µM	> 40 µM	> 40 µM
O=C1C(O)=C(C(NCc2ccccn2)c2ccccc2)C(=O)c2ccccc21 (centres undefined) [listing 2 of 2 here]					> 40 µM	> 40 µM	> 40 µM	14.3 µM
O=C1C(O)=C(C(NCc2ccccc2)c2ccccc2O)C(=O)c2ccccc21 (centres undefined)	3.9 µM	23.1 µM			18.9 µM			15.6 µM
CCCCCCCCCCNC(C1=C(O)C(=O)c2ccccc2C1=O)c1cccc(O)c1 (centres undefined)	11.9 µM	> 40 µM	31.1 µM	25.8 µM				
CC(C)(C)OC(=O)NCCNCC1=C(O)C(=O)c2ccccc2C1=O	> 40 µM	> 40 µM	> 40 µM	> 40 µM				
O=C1C(O)=C(C(NCCCCl)c2ccccn2)C(=O)c2ccccc21 (centres undefined)	> 40 µM	> 40 µM	> 40 µM	> 40 µM				
COc1cccc2c1C(=O)c1c(O)c3c(c(O)c1C2=O)C[C@@](O)(C(=O)CO)C[C@@H]3O[C@H]1C[C@H](N)[C@H](O)[C@H](C)O1 [DOXORUBICIN]	0.03 µM	0.39 µM						
CCCCNC(C1=C(O)C(=O)c2ccccc2C1=O)c1ccccc1O (centres undefined)		33.3 µM			25.6 µM	6.5 µM		20.5 µM
CCCCCCCNC(C1=C(O)C(=O)c2ccccc2C1=O)c1ccc(Cl)cc1Cl (centres undefined)	4.5 µM	> 40 µM	> 40 µM	> 40 µM				
CCCCCCCNC(C1=C(O)C(=O)c2ccccc2C1=O)c1ccccc1O (centres undefined)	7.7 µM	18.9 µM	33.3 µM	19.7 µM				
CCCCNC(C1=C(O)C(=O)c2ccccc2C1=O)c1ccc(Cl)cc1Cl (centres undefined) [listing 2 of 2 here]			> 40 µM	> 40 µM				
CCCCNC(C1=C(O)C(=O)c2ccccc2C1=O)c1cc(C)ccc1O (centres undefined)					26.5 µM	6 µM	29.6 µM	17 µM
CC(C)(C)OC(=O)NCCCNCC1=C(O)C(=O)c2ccccc2C1=O	> 40 µM	> 40 µM	> 40 µM	> 40 µM				
CCCCNC(C1=C(O)C(=O)c2ccccc2C1=O)c1ccc([N+](=O)[O-])cc1 (centres undefined) [listing 1 of 2 here]			> 40 µM	> 40 µM				
O=C1C(O)=C(C(NCc2ccccc2)c2ccc([N+](=O)[O-])cc2)C(=O)c2ccccc21 (centres undefined) [listing 2 of 2 here]			> 40 µM	> 40 µM				
Cc1ccc(O)c(C(NCc2ccccc2)C2=C(O)C(=O)c3ccccc3C2=O)c1 (centres undefined)			18.7 µM	12.1 µM			14.4 µM	
CCCCNC(C1=C(O)C(=O)c2ccccc2C1=O)c1ccc([N+](=O)[O-])cc1 (centres undefined) [listing 2 of 2 here]	> 40 µM	> 40 µM						
CC(C)(C)OC(=O)NCCCNC(C1=C(O)C(=O)c2ccccc2C1=O)c1ccc(Cl)cc1Cl (centres undefined)		> 40 µM	16.2 µM	21.2 µM				
